Source: US12202835B2, “Substituted aromatic ring-linked dioxinoquinazolines and dioxinoquinolines as kinase inhibitors” (BEIJING SCITECH-MQ PHARMACEUTICALS LIMITED, priority 2018, dated 2025)

Key:
c-MET kinase = c-MET kinase (Homo sapiens (Human), UniProt P08581); experiment: Assay of small molecular compounds for inhibiting the activity of c-MET kinase (LANCE TR-FRET); type: biochemical; settings: read-out: CMET IC50
How it was run: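 LANCE TR-FRET assay with c-MET at 1 nM final after a 5 min room-temperature preincubation with compound (11-point, 3-fold series, 2500–0.042 nM final, 4% DMSO). ULight-JAK-1 (Tyr1023) peptide (100 nM final) and ATP (10 μM final) reacted 60 min in the dark. Inhibition was taken relative to controls, then IC50 fitted.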

TRKA kinase = TRKA kinase (Homo sapiens (Human), UniProt P04629); experiment: Assay of small molecular compounds for inhibiting the activity of TRKA kinase (LANCE TR-FRET); type: biochemical
How it was run: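 LANCE TR-FRET with ULight-TK peptide; compounds pre-incubated 5 min with TRKA (2× solution 2 nM), then substrate/ATP added (4× mix: 400 nM peptide, 40 μM ATP). Reaction 60 min at room temperature in dark, 1% DMSO final; stopped, detection developed 60 min, signal read.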

EBC1 cells = experiment: Assay for inhibiting the proliferation of EBC1 cells (CCK-8); type: cell-based; settings: Homo sapiens, EBC-1
How it was run: (§1)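 Cells seeded in 96-well plates overnight, then exposed 72 h to 9 three-fold dilutions of compound (0.25% DMSO final). Viability by CCK-8 (1-2 h at 37° C., OD 450 nm), survival normalized to untreated and cell-free blanks; IC50 by curve fitting.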

MHCC97H cells = experiment: Assay for inhibiting the proliferation of MHCC97H cells (CCK-8); type: cell-based; settings: Homo sapiens
How it was run: as §1

Ba/F3-AXL cells = experiment: Assay for inhibiting the proliferation of Ba/F3-AXL cells (CCK-8); type: cell-based; settings: 72 hours of incubation, medium with 100 ng/mL hGas6, CCK-8
Experimental: The values were then imported into Graphpad Prism 5 software for curve fitting, and IC50 was calculated.

Sequence of c-MET kinase (P08581 25-1390): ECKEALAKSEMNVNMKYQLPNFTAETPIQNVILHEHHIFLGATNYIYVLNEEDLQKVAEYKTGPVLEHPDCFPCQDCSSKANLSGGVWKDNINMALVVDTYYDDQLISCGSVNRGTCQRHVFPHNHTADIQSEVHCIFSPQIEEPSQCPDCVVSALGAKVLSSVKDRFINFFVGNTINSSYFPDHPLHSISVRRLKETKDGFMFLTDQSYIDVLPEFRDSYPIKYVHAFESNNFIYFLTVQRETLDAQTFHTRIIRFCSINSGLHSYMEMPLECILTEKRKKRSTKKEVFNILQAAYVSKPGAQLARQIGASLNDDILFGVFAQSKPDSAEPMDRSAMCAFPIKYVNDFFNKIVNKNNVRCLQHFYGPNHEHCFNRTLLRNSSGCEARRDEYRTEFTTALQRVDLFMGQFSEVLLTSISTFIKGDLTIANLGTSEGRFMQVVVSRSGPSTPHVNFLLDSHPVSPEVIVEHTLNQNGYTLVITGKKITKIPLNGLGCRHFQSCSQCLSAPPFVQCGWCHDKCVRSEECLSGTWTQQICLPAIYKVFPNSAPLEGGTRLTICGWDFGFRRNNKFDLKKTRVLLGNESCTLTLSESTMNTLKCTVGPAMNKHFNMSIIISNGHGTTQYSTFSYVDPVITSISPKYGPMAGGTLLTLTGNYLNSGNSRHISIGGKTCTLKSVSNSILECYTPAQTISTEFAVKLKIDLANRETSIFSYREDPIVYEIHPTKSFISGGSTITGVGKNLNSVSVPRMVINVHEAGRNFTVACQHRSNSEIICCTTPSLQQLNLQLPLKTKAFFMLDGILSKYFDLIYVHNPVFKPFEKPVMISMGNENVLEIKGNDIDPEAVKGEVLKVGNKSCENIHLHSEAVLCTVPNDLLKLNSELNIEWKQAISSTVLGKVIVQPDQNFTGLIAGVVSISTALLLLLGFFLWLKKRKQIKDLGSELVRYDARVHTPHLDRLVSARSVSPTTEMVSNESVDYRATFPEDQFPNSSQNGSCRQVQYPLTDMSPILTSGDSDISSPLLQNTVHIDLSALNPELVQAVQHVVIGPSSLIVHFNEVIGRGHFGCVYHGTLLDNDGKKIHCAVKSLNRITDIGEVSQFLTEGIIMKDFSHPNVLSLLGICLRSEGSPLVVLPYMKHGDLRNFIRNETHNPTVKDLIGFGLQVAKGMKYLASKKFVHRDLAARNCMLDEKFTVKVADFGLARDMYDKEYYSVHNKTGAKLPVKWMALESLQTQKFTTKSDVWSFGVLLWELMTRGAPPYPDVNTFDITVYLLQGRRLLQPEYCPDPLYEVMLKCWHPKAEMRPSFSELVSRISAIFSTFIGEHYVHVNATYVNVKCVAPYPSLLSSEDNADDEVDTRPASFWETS
Sequence of TRKA kinase (P04629 33-796): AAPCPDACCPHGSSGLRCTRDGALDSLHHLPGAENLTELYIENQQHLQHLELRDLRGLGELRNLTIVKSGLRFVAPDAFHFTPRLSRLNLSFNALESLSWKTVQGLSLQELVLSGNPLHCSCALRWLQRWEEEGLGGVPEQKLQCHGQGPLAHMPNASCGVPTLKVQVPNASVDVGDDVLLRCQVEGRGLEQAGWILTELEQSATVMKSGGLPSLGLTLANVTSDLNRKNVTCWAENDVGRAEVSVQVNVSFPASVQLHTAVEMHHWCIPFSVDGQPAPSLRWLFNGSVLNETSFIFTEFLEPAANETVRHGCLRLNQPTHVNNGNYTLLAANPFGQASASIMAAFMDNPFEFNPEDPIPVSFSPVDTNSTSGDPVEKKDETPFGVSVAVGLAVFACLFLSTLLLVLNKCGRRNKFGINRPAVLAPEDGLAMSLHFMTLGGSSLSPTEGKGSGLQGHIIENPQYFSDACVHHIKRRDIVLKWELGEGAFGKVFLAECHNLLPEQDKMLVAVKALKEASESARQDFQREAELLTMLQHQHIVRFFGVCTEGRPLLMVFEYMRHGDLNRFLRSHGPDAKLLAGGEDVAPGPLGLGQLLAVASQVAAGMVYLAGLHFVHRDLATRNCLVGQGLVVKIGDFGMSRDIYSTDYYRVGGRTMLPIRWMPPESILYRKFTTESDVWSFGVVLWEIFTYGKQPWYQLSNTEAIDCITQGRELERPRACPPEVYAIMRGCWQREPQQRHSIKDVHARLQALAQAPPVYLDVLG

SMILES	IC50 (c-MET kinase) [nM]	IC50 (TRKA kinase) [nM]	IC50 (EBC1 cells) [nM]	IC50 (MHCC97H cells) [nM]	IC50 (Ba/F3-AXL cells) [nM]
COc1cc2ncnc(Oc3ccc(NC(=O)c4c(OC)ccn(-c5ccc(F)cc5)c4=O)cc3F)c2c2c1OCCO2 [Example 2, N-(3-fluoro-4-((5-methoxy-2,3-dihydro-[1,4]dioxino[2,3-f]quinazolin-10-yl)oxy)phenyl)-1-(4-fluorophenyl)-4-methoxy-2-oxo-1,2-dihydropyridine-3-carboxamide]	≤ 50	< 50	50 to 200	200 to 1000	< 50
CCn1cc(C(=O)Nc2ccc(Oc3ccnc4cc(OCCOC)c5c(c34)OCCO5)c(F)c2)c(=O)n(-c2ccc(F)cc2)c1=O [Example 44, N-(3-fluoro-4-((5-(2-methoxyethoxy)-2,3-dihydro-[1,4]dioxino[2,3-f]quinolin-10-yl)oxy)phenyl)-3-(4-fluorophenyl)-1-ethyl-2,4-dioxo-1,2,3,4-tetrahydropyrimidine-5-carboxamide]	≤ 50	< 50	≤ 50	≤ 50	< 50
COc1cc2nccc(Oc3ccc(NC(=O)c4cn(CCO)c(=O)n(-c5ccc(F)cc5)c4=O)cc3F)c2c2c1OCCO2 [Example 45, N-(3-fluoro-4-((5-methoxy-2,3-dihydro-[1,4]dioxino[2,3-f]quinolin-10-yl)oxy)phenyl)-3-(4-fluorophenyl)-1-(2-hydroxyethyl)-2,4-dioxo-1,2,3,4-tetrahydropyrimidine-5-carboxamide]	≤ 50	50 to 500	50 to 200	200 to 1000	< 50
COCCn1cc(C(=O)Nc2ccc(Oc3ccnc4cc(OC)c5c(c34)OCCO5)c(F)c2)c(=O)n(-c2ccc(F)cc2)c1=O [Example 46, N-(3-fluoro-4-((5-methoxy-2,3-dihydro-[1,4]dioxino[2,3-f]quinolin-10-yl)oxy)phenyl)-3-(4-fluorophenyl)-1-(2-methoxyethyl)-2,4-dioxo-1,2,3,4-tetrahydropyrimidine-5-carboxamide]	≤ 50	50 to 500	≤ 50	≤ 50	< 50
CCOc1ccn(-c2ccc(F)cc2)c(=O)c1C(=O)Nc1ccc(Oc2ccnc3cc(OCCCN4CCN(C)CC4)c4c(c23)OCCO4)c(F)c1 [Example 49, N-(3-fluoro-4-((5-(3-(4-methylpiperazin-1-yl)propoxy)-2,3-dihydro-[1,4]dioxino[2,3-f]quinolin-10-yl)oxy)phenyl)-1-(4-fluorophenyl)-4-ethoxy-2-oxo-1,2-dihydropyridine-3-carboxamide]	≤ 50	< 50	≤ 50	≤ 50	< 50
CCOc1ccn(-c2ccc(F)cc2)c(=O)c1C(=O)Nc1ccc(Oc2ccnc3cc(OCCCN4CCN(C(C)=O)CC4)c4c(c23)OCCO4)c(F)c1 [Example 50, N-(4-((5-(3-(4-acetyl-piperazin-1-yl)propoxy)-2,3-dihydro-[1,4]dioxino[2,3-f]quinolin-10-yl)oxy)-3-fluorophenyl)-4-ethoxy-1-(4-fluorophenyl)-2-oxo-1,2-dihydropyridine-3-carboxamide]	≤ 50	< 50	≤ 50	≤ 50	< 50
CCOc1ccn(-c2ccc(F)cc2)c(=O)c1C(=O)Nc1ccc(Oc2ccnc3cc(OCCCN4CCS(=O)(=O)CC4)c4c(c23)OCCO4)c(F)c1 [Example 51, N-(4-((5-(3-(1,1-dioxidothiomorpholino)propoxy)-2,3-dihydro-[1,4]dioxino[2,3-f]quinolin-1 0-yl)oxy)-3-fluorophenyl)-4-ethoxy-1-(4-fluorophenyl)-2-oxo-1,2-dihydropyridine-3-carboxamide]	≤ 50	< 50	≤ 50	≤ 50	< 50
